The values that follow are results of earlier work, collected in US7666658B1, “Antibody catalysis of enantio- and diastereo-selective aldol reactions” (The Scripps Research Institute, priority 1999, dated 2010).

The conditions of this data set: retro-aldolization of fructose-1,6-bisphosphate, reported at 4° C.

“muscle aldolase: nature's muscle aldolase, natural enzyme cleaving fructose-1,6-bisphosphate”: the efficiency is recorded as 4.9×10^4 s^−1M^−1.
